Measurements as given in the kinase profiling compilation of Christmann-Franck et al. (2016).

Key:
Assay in all cases: radiometric filter-binding kinase assay, Kinase HotSpot
Settings in all cases: compound 0.5 µM; ATP 10 µM
RPS6KA5 KD2 (human) = RPS6KA5 KD2 (human) (UniProt O75582)
SLK (human) = SLK (human) (UniProt Q9H2G2)
DYRK1B (human) = DYRK1B (human) (UniProt Q9Y463)
EPHA8 (human) = EPHA8 (human) (UniProt P29322)
ALK (human) = ALK (human) (UniProt Q9UM73)
FGFR3 (human) = FGFR3 (human) (UniProt P22607)
IRAK4 (human) = IRAK4 (human) (UniProt Q9NWZ3)
GSK3A (human) = GSK3A (human) (UniProt P49840)
TEK (human) = TEK (human) (UniProt Q02763)
BTK (human) = BTK (human) (UniProt Q06187)
ABL2 (human) = ABL2 (human) (UniProt P42684)
MAP2K2 (human) = MAP2K2 (human) (UniProt P36507)
JAK2 JH1 JH2 (human) = JAK2 JH1 JH2 (human) (UniProt O60674)
DSTYK (human) = DSTYK (human) (UniProt Q6XUX3)
CAMK2A (human) = CAMK2A (human) (UniProt Q9UQM7)
STK17A (human) = STK17A (human) (UniProt Q9UEE5)
MAPKAPK2 (human) = MAPKAPK2 (human) (UniProt P49137)
CDC42BPB (human) = CDC42BPB (human) (UniProt Q9Y5S2)
EPHB2 (human) = EPHB2 (human) (UniProt P29323)
PRKG2 (human) = PRKG2 (human) (UniProt Q13237)
KDR (human) = KDR (human) (UniProt P35968)
[1] = target: TYK2 JH1 catalytic (human) (UniProt P29597)
FGFR2 (human) = FGFR2 (human) (UniProt P21802)
PAK2 (human) = PAK2 (human) (UniProt Q13177)
NTRK3 (human) = NTRK3 (human) (UniProt Q16288)
AKT1 (human) = AKT1 (human) (UniProt P31749)
PRKCI (human) = PRKCI (human) (UniProt P41743)
NEK9 (human) = NEK9 (human) (UniProt Q8TD19)
CDK5 CDK5R1 p25 (human) = CDK5 CDK5R1 p25 (human) (UniProt Q00535+Q15078)
FLT1 (human) = FLT1 (human) (UniProt P17948)
RPS6KB2 (human) = RPS6KB2 (human) (UniProt Q9UBS0)
TXK (human) = TXK (human) (UniProt P42681)
NEK11 (human) = NEK11 (human) (UniProt Q8NG66)
AURKA (human) = AURKA (human) (UniProt O14965)
CDK6 CCND3 (human) = CDK6 CCND3 (human) (UniProt P30281+Q00534)
MAPK11 (human) = MAPK11 (human) (UniProt Q15759)
PNCK (human) = PNCK (human) (UniProt Q6P2M8)
CDK1 CCNB1 (human) = CDK1 CCNB1 (human) (UniProt P06493+P14635)
GRK5 (human) = GRK5 (human) (UniProt P34947)
PBK (human) = PBK (human) (UniProt Q96KB5)
NEK4 (human) = NEK4 (human) (UniProt P51957)
SRPK1 (human) = SRPK1 (human) (UniProt Q96SB4)

SLK (human), sequence (Q9H2G2 whole entry, looked up): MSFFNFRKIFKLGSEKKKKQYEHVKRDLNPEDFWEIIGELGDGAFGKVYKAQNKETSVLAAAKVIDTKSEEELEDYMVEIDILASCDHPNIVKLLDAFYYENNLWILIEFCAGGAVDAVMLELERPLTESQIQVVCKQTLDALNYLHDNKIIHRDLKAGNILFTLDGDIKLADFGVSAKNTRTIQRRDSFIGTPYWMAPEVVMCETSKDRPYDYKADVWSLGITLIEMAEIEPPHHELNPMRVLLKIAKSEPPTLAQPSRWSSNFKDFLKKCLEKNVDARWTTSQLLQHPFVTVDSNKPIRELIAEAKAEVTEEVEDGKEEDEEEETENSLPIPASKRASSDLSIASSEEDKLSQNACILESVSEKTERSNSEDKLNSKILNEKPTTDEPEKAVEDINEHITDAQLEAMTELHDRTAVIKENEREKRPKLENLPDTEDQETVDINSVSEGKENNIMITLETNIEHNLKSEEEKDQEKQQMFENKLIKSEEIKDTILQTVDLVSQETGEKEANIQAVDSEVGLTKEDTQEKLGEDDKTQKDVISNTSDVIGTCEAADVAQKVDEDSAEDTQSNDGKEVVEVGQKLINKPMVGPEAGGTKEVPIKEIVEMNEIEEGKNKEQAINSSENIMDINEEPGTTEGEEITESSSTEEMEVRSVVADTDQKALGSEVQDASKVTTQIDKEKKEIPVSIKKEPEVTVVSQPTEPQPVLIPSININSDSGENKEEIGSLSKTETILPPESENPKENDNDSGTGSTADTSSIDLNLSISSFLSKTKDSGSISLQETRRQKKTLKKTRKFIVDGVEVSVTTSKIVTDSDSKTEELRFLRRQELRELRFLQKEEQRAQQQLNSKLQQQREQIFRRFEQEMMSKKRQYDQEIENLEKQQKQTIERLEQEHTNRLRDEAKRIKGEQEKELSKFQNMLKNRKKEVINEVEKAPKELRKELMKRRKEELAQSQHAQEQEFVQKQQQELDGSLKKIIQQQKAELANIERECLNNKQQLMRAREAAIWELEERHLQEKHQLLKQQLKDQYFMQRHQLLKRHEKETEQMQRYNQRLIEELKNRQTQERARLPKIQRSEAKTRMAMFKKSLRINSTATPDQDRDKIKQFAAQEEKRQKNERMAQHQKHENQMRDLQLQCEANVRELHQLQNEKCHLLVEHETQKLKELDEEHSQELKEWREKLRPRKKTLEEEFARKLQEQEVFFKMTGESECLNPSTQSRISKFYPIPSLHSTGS
NEK11 (human), sequence (Q8NG66 whole entry, looked up): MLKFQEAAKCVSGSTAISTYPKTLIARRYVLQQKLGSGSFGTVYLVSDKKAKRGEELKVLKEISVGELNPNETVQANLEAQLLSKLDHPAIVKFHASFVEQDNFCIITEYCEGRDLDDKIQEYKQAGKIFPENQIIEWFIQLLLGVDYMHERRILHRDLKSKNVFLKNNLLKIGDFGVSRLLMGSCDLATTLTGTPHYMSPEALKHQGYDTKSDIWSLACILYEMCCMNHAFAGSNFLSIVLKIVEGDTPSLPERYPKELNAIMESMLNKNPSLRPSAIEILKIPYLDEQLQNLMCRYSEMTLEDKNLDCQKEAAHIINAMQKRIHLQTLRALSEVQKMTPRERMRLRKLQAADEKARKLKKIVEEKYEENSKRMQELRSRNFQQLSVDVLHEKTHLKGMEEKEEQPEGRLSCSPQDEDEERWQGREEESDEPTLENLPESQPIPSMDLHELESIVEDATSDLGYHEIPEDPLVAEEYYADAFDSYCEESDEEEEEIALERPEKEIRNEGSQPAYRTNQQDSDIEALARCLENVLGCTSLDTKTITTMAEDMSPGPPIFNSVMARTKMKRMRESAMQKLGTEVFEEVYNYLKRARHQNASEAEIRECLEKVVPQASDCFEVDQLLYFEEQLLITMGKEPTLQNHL
CDC42BPB (human), sequence (Q9Y5S2 whole entry, looked up): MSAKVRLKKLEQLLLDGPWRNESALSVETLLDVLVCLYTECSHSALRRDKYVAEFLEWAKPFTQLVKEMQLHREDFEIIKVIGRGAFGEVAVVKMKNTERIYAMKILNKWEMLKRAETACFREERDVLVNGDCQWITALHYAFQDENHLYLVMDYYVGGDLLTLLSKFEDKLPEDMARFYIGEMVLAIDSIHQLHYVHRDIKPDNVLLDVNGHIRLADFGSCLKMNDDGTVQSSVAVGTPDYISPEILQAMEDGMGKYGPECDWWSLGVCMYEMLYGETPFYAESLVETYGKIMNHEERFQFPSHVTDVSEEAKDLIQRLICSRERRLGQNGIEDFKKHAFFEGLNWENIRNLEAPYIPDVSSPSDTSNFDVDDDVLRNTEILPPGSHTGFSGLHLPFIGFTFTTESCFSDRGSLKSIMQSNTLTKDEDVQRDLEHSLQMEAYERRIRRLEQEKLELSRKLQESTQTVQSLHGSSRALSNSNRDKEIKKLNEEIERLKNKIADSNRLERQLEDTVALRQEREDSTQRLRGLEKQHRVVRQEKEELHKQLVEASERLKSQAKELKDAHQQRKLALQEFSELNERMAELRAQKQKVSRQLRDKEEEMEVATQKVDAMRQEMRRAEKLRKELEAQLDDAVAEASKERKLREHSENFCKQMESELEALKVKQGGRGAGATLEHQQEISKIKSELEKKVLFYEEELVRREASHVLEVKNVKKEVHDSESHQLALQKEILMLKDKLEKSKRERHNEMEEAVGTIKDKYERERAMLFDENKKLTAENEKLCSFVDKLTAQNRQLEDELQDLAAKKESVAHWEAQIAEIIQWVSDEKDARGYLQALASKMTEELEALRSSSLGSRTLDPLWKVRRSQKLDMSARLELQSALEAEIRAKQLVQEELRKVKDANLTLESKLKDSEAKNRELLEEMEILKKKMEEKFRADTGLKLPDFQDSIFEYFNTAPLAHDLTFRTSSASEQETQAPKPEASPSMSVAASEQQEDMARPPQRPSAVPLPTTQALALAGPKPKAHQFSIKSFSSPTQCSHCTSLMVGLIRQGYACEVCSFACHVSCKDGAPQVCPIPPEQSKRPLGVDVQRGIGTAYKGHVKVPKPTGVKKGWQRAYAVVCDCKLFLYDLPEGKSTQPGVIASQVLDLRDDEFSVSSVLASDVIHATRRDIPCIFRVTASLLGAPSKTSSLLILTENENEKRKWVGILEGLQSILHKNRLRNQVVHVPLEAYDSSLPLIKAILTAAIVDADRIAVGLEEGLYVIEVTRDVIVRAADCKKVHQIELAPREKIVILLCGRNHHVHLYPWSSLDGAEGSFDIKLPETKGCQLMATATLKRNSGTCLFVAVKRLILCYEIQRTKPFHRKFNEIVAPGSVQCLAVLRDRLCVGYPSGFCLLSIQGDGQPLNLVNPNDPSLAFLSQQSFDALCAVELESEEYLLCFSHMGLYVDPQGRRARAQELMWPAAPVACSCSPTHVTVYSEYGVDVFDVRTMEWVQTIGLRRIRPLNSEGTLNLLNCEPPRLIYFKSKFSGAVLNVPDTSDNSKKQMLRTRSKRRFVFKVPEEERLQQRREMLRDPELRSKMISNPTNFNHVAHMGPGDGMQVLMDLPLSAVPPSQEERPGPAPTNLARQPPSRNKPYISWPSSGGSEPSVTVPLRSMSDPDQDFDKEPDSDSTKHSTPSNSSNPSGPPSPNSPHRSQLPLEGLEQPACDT
DSTYK (human), sequence (Q6XUX3 whole entry, looked up): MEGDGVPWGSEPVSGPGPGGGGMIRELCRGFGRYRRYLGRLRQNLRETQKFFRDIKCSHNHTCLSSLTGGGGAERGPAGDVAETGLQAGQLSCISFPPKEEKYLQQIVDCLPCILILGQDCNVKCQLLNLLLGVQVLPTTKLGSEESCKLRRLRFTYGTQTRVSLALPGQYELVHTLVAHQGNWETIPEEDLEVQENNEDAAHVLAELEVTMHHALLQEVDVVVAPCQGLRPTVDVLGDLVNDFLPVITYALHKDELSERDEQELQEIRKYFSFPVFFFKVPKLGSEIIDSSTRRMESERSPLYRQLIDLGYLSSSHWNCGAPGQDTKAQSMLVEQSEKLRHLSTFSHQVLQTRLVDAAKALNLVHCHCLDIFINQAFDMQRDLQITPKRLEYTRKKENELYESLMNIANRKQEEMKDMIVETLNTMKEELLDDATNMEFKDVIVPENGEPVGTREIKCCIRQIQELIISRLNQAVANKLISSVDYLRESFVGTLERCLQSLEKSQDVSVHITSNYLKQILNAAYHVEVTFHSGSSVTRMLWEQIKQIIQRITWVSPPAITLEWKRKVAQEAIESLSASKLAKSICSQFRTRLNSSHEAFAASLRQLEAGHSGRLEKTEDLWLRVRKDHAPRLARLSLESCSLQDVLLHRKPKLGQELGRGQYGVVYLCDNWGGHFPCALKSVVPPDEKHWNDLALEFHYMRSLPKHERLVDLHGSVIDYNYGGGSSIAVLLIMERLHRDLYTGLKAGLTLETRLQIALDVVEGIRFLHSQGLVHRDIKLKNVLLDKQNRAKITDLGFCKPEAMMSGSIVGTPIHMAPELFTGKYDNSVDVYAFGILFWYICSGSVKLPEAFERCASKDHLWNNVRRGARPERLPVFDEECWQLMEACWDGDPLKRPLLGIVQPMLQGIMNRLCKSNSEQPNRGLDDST
STK17A (human), sequence (Q9UEE5 whole entry, looked up): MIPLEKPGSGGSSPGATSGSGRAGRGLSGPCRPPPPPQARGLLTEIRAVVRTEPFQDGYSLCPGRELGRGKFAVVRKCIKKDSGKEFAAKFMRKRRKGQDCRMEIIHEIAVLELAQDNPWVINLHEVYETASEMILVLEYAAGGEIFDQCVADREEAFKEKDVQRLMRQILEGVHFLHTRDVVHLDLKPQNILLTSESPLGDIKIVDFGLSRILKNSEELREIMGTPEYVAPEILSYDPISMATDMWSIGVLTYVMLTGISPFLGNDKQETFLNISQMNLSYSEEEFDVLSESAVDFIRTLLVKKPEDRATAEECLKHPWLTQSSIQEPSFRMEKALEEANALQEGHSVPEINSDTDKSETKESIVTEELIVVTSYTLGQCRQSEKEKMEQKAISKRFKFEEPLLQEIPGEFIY

SMILES: O=C(O)/C=C/c1cc(Br)c(Br)c(Br)c1Br
- residual activity (RPS6KA5 KD2 (human)): 88.3%
- residual activity (SLK (human)): 96%
- residual activity (DYRK1B (human)): 79.1%
- residual activity (EPHA8 (human)): 99.1%
- residual activity (ALK (human)): 98.6%
- residual activity (FGFR3 (human)): 94.9%
- residual activity (IRAK4 (human)): 86.6%
- residual activity (GSK3A (human)): 91.5%
- residual activity (TEK (human)): 94.4%
- residual activity (BTK (human)): 97.8%
- residual activity (ABL2 (human)): 88.7%
- residual activity (MAP2K2 (human)): 103%
- residual activity (JAK2 JH1 JH2 (human)): 101%
- residual activity (DSTYK (human)): 98.2%
- residual activity (CAMK2A (human)): 64.4%
- residual activity (STK17A (human)): 84.6%
- residual activity (MAPKAPK2 (human)): 91.5%
- residual activity (CDC42BPB (human)): 97.4%
- residual activity (EPHB2 (human)): 103%
- residual activity (PRKG2 (human)): 80.3%
- residual activity (KDR (human)): 90.1%
- residual activity [1]: 110%
- residual activity (FGFR2 (human)): 99.5%
- residual activity (PAK2 (human)): 83.2%
- residual activity (NTRK3 (human)): 90.6%
- residual activity (AKT1 (human)): 97.4%
- residual activity (PRKCI (human)): 97.3%
- residual activity (NEK9 (human)): 94.7%
- residual activity (CDK5 CDK5R1 p25 (human)): 84.1%
- residual activity (FLT1 (human)): 87.5%
- residual activity (RPS6KB2 (human)): 93.8%
- residual activity (TXK (human)): 98.7%
- residual activity (NEK11 (human)): 101%
- residual activity (AURKA (human)): 77.2%
- residual activity (CDK6 CCND3 (human)): 102%
- residual activity (MAPK11 (human)): 92.7%
- residual activity (PNCK (human)): 95.1%
- residual activity (CDK1 CCNB1 (human)): 62.7%
- residual activity (GRK5 (human)): 104%
- residual activity (PBK (human)): 96.2%
- residual activity (NEK4 (human)): 54.6%
- residual activity (SRPK1 (human)): 79.3%

SMILES: CC(C)c1nn(-c2c(Cl)cccc2Cl)c2nc(Cc3ccc(OCCO)cc3)nc(O)c12
- residual activity (RPS6KA5 KD2 (human)): 85.6%
- residual activity (SLK (human)): 86.9%
- residual activity (DYRK1B (human)): 99.9%
- residual activity (EPHA8 (human)): 102%
- residual activity (ALK (human)): 103%
- residual activity (FGFR3 (human)): 97%
- residual activity (IRAK4 (human)): 112%
- residual activity (GSK3A (human)): 73.1%
- residual activity (TEK (human)): 100%
- residual activity (BTK (human)): 100%
- residual activity (ABL2 (human)): 96.3%
- residual activity (MAP2K2 (human)): 98.5%
- residual activity (JAK2 JH1 JH2 (human)): 98.3%
- residual activity (DSTYK (human)): 93.1%
- residual activity (CAMK2A (human)): 106%
- residual activity (STK17A (human)): 98.3%
- residual activity (MAPKAPK2 (human)): 95.4%
- residual activity (CDC42BPB (human)): 105%
- residual activity (EPHB2 (human)): 92.5%
- residual activity (PRKG2 (human)): 61.6%
- residual activity (KDR (human)): 105%
- residual activity [1]: 111%
- residual activity (FGFR2 (human)): 97.5%
- residual activity (PAK2 (human)): 95.6%
- residual activity (NTRK3 (human)): 90.5%
- residual activity (AKT1 (human)): 94.7%
- residual activity (PRKCI (human)): 95.2%
- residual activity (NEK9 (human)): 97.3%
- residual activity (CDK5 CDK5R1 p25 (human)): 2.54%
- residual activity (FLT1 (human)): 87.2%
- residual activity (RPS6KB2 (human)): 106%
- residual activity (TXK (human)): 101%
- residual activity (NEK11 (human)): 109%
- residual activity (AURKA (human)): 107%
- residual activity (CDK6 CCND3 (human)): 46.6%
- residual activity (MAPK11 (human)): 81.8%
- residual activity (PNCK (human)): 94.3%
- residual activity (CDK1 CCNB1 (human)): -1.2%
- residual activity (GRK5 (human)): 108%
- residual activity (PBK (human)): 101%
- residual activity (NEK4 (human)): 96.3%
- residual activity (SRPK1 (human)): 97.4%

SMILES: COc1ccc(OC)c2c(=S)c3ccccc3[nH]c12
- residual activity (RPS6KA5 KD2 (human)): 86%
- residual activity (SLK (human)): 80.2%
- residual activity (DYRK1B (human)): 107%
- residual activity (EPHA8 (human)): 93.8%
- residual activity (ALK (human)): 105%
- residual activity (FGFR3 (human)): 94.9%
- residual activity (IRAK4 (human)): 109%
- residual activity (GSK3A (human)): 104%
- residual activity (TEK (human)): 100%
- residual activity (BTK (human)): 102%
- residual activity (ABL2 (human)): 92.5%
- residual activity (MAP2K2 (human)): 100%
- residual activity (JAK2 JH1 JH2 (human)): 96%
- residual activity (DSTYK (human)): 91.3%
- residual activity (CAMK2A (human)): 100%
- residual activity (STK17A (human)): 90.3%
- residual activity (MAPKAPK2 (human)): 94.6%
- residual activity (CDC42BPB (human)): 106%
- residual activity (EPHB2 (human)): 94.9%
- residual activity (PRKG2 (human)): 62.2%
- residual activity (KDR (human)): 108%
- residual activity [1]: 108%
- residual activity (FGFR2 (human)): 95.8%
- residual activity (PAK2 (human)): 104%
- residual activity (NTRK3 (human)): 93.6%
- residual activity (AKT1 (human)): 89.7%
- residual activity (PRKCI (human)): 99.3%
- residual activity (NEK9 (human)): 95.8%
- residual activity (CDK5 CDK5R1 p25 (human)): 85.4%
- residual activity (FLT1 (human)): 101%
- residual activity (RPS6KB2 (human)): 105%
- residual activity (TXK (human)): 101%
- residual activity (NEK11 (human)): 130%
- residual activity (AURKA (human)): 116%
- residual activity (CDK6 CCND3 (human)): 102%
- residual activity (MAPK11 (human)): 86.7%
- residual activity (PNCK (human)): 97.3%
- residual activity (CDK1 CCNB1 (human)): 97.8%
- residual activity (GRK5 (human)): 108%
- residual activity (PBK (human)): 107%
- residual activity (NEK4 (human)): 87.7%
- residual activity (SRPK1 (human)): 99.9%

SMILES: COc1cc2ncnc(N3CCN(C(=O)Nc4ccc(Oc5ccccc5)cc4)CC3)c2cc1OC
- residual activity (RPS6KA5 KD2 (human)): 96.4%
- residual activity (SLK (human)): 97.9%
- residual activity (DYRK1B (human)): 93.5%
- residual activity (EPHA8 (human)): 92.5%
- residual activity (ALK (human)): 101%
- residual activity (FGFR3 (human)): 99.9%
- residual activity (IRAK4 (human)): 83.5%
- residual activity (GSK3A (human)): 95.8%
- residual activity (TEK (human)): 92.6%
- residual activity (BTK (human)): 87.8%
- residual activity (ABL2 (human)): 92.9%
- residual activity (MAP2K2 (human)): 99.3%
- residual activity (JAK2 JH1 JH2 (human)): 99.3%
- residual activity (DSTYK (human)): 113%
- residual activity (CAMK2A (human)): 89.9%
- residual activity (STK17A (human)): 85.5%
- residual activity (MAPKAPK2 (human)): 102%
- residual activity (CDC42BPB (human)): 98.3%
- residual activity (EPHB2 (human)): 98.2%
- residual activity (PRKG2 (human)): 97.5%
- residual activity (KDR (human)): 82.7%
- residual activity [1]: 83.1%
- residual activity (FGFR2 (human)): 92.4%
- residual activity (PAK2 (human)): 104%
- residual activity (NTRK3 (human)): 89%
- residual activity (AKT1 (human)): 93.7%
- residual activity (PRKCI (human)): 105%
- residual activity (NEK9 (human)): 103%
- residual activity (CDK5 CDK5R1 p25 (human)): 77.1%
- residual activity (FLT1 (human)): 79%
- residual activity (RPS6KB2 (human)): 92.4%
- residual activity (TXK (human)): 99.3%
- residual activity (NEK11 (human)): 107%
- residual activity (AURKA (human)): 79.6%
- residual activity (CDK6 CCND3 (human)): 100%
- residual activity (MAPK11 (human)): 99.6%
- residual activity (PNCK (human)): 94.3%
- residual activity (CDK1 CCNB1 (human)): 105%
- residual activity (GRK5 (human)): 82.2%
- residual activity (PBK (human)): 85.8%
- residual activity (NEK4 (human)): 94.4%
- residual activity (SRPK1 (human)): 97.5%
